Tests used:
[1] = tested on: pigweed; assay: Test A pre-/postemergence herbicide test; type: in vivo, Amaranthus retroflexus; conditions: for Plant response rating, Pigweed: 0 to 100 scale
Outline: (§1)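 Greenhouse pot test with pre- and postemergence application of surfactant-containing solvent formulations. Postemergence plants were 2–10 cm, one- to two-leaf stage. Response scored visually after ~10 days, 0 (no effect) to 100 (complete control).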

[2] = tested on: barnyardgrass; assay: Test B flooded paddy test; type: in vivo, Echinochloa crus-galli; conditions: 500 g ai/ha, Flood; scale of 0 to 100 where 0 is no effect and 100 is complete control
Outline: (§2)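 In-water application to pots flooded 3 cm deep, plants at 2-leaf stage. Held in greenhouse 13–15 days at constant flood depth. Scored 0–100 by eye against controls.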

[3] = tested on: galium; assay: Test A postemergence herbicide test; type: in vivo, Galium aparine; conditions: for Plant response rating, Galium: 125 g ai/ha, 0 to 100 scale, 0 is no effect, 100 is complete control; for Galium plant response rating (0 to 100 scale, 0 is no effect, 100 is complete control): 500 g ai/ha
Outline: (§3)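 Injury was rated visually about 10 days after treatment on a 0 (no effect) to 100 (complete control) scale, compared with untreated plants. Test chemicals were sprayed postemergence onto greenhouse plants 2–10 cm high at one to two leaves, grown in a loam–sand blend.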

[4] = tested on: ragweed; assay: Test A pre-/postemergence herbicide test; type: in vivo, Ambrosia elatior; conditions: for Plant response rating, Ragweed: 0 to 100 scale
Outline: as §1

[5] = tested on: rice; assay: Test B flooded paddy test; type: in vivo, Oryza sativa; conditions: 500 g ai/ha, Flood; scale of 0 to 100 where 0 is no effect and 100 is complete control
Outline: as §2

[6] = tested on: kochia; assay: Test A pre-/postemergence herbicide test; type: in vivo, Kochia scoparia; conditions: for Plant response rating, Kochia: 0 to 100 scale
Outline: as §1

[7] = tested on: giant foxtail; assay: Test A pre-/postemergence herbicide test; type: in vivo, Setaria faberii; conditions: for Plant response rating, Foxtail, Giant: 0 to 100 scale
Outline: as §1

[8] = tested on: corn; assay: Test A pre-/postemergence herbicide test; type: in vivo, Zea mays; conditions: Postemergence; for Plant response rating, Corn: 125 g ai/ha, 0 to 100 scale, 0 is no effect, 100 is complete control; for Corn plant response rating (0 to 100 scale, 0 is no effect, 100 is complete control): 500 g ai/ha
Outline: as §1

[9] = tested on: ryegrass, Italian; assay: Test A pre-/postemergence herbicide test; type: in vivo, Lolium multiflorum; conditions: for Plant response rating, Ryegrass, Italian: 0 to 100 scale
Outline: as §1

[10] = tested on: barnyardgrass; assay: Test A pre-/postemergence herbicide test; type: in vivo, Echinochloa crus-galli
Outline: as §1

[11] = tested on: wheat; assay: Test A pre-/postemergence herbicide test; type: in vivo, Triticum aestivum; conditions: Postemergence; for Plant response rating, Wheat: 125 g ai/ha, 0 to 100 scale, 0 is no effect, 100 is complete control; for Wheat plant response rating (0 to 100 scale, 0 is no effect, 100 is complete control): 500 g ai/ha
Outline: as §1

[12] = tested on: ducksalad; assay: Test B flooded paddy test; type: in vivo, Heteranthera limosa; conditions: 500 g ai/ha, Flood; scale of 0 to 100 where 0 is no effect and 100 is complete control
Outline: as §2

[13] = tested on: sedge, umbrella; assay: Test B flooded paddy test; type: in vivo, Cyperus difformis; conditions: 500 g ai/ha, Flood; scale of 0 to 100 where 0 is no effect and 100 is complete control
Outline: as §2

[14] = tested on: blackgrass; assay: Test A postemergence herbicide test; type: in vivo, Alopecurus myosuroides; conditions: for Plant response rating, Blackgrass: 125 g ai/ha, 0 to 100 scale, 0 is no effect, 100 is complete control; for Blackgrass plant response rating (0 to 100 scale, 0 is no effect, 100 is complete control): 500 g ai/ha
Outline: as §3

[15] = 125 g ai/ha, visual rating, 0 no effect, 100 complete control, approximately 10 days, preemergence
[16] = Postemergence, 125 g ai/ha, 0 is no effect, 100 is complete control
[17] = preemergence, 500 g ai/ha, 0 is no effect and 100 is complete control
[18] = 125 g ai/ha, visual rating, 0 to 100 scale, 0 no effect, 100 complete control, approximately 10 days, preemergence
[19] = Postemergence, 125 g ai/ha, 0 to 100 scale, 0 is no effect, 100 is complete control

SMILES | Plant response rating, Pigweed [1, 15] | Plant response rating, Pigweed [1, 16] | Pigweed plant response rating (0 to 100 scale, 0 is no effect, 100 is complete control) ([1]; Postemergence, 500 g ai/ha) | Plant response rating, Pigweed [1, 17] | Plant response rating, Barnyardgrass [2] | Plant response rating, Galium [3] | Galium plant response rating (0 to 100 scale, 0 is no effect, 100 is complete control) [3] | Plant response rating, Ragweed [4, 15] | Plant response rating, Ragweed [4, 16] | Ragweed plant response rating (0 to 100 scale, 0 is no effect, 100 is complete control) ([4]; Postemergence, 500 g ai/ha) | Plant response rating, Rice [5] | Plant response rating, Kochia [6, 15] | Plant response rating, Kochia [6, 16] | Kochia plant response rating (0 to 100 scale, 0 is no effect, 100 is complete control) ([6]; Postemergence, 500 g ai/ha) | Plant response rating, Kochia [6, 17] | Plant response rating, Foxtail, Giant [7, 15] | Plant response rating, Foxtail, Giant [7, 16] | Foxtail, Giant plant response rating (0 to 100 scale, 0 is no effect, 100 is complete control) ([7]; Postemergence, 500 g ai/ha) | Plant response rating, Corn [8] | Corn plant response rating (0 to 100 scale, 0 is no effect, 100 is complete control) [8] | also measured
O=C1NCC(c2cccc(OC(F)F)c2)C1C(=O)Nc1ccccc1Cl (centres unmarked) [Compound 229] | 0 | 0 | 0 | 0 | 50 | 60 | 70 | 0 | 20 | 60 | 0 | 0 | 10 | 60 | 70 | 90 | 80 | 90 | 0 | 0 | Plant response rating, Foxtail, Giant [7, 17]: 90; Plant response rating, Ryegrass, Italian [9, 15]: 10; Plant response rating, Ryegrass, Italian [9, 16]: 30; Ryegrass, Italian plant response rating (0 to 100 scale, 0 is no effect, 100 is complete control) ([9]; Postemergence, 500 g ai/ha): 40; Plant response rating, Ryegrass, Italian [9, 17]: 20; Plant response rating, Barnyardgrass [10, 18]: 70; Plant response rating, Barnyardgrass [10, 19]: 70; Barnyardgrass plant response rating (0 to 100 scale, 0 is no effect, 100 is complete control) ([10]; Postemergence, 500 g ai/ha): 80; Plant response rating, Barnyardgrass ([10]; preemergence, 500 g ai/ha, 0 to 100 scale, 0 is no effect and 100 is complete control): 90; Plant response rating, Wheat [11]: 0; Wheat plant response rating (0 to 100 scale, 0 is no effect, 100 is complete control) [11]: 0; Plant response rating, Ducksalad [12]: 100; Plant response rating, Sedge, Umbrella [13]: 0; Plant response rating, Blackgrass [14]: 40; Blackgrass plant response rating (0 to 100 scale, 0 is no effect, 100 is complete control) [14]: 70
O=C1NCC(c2cccc(C3CC3)c2)C1C(=O)Nc1ccc(F)c(F)c1F (racemic) [Compound 168] | 40 | 0 | 40 | 50 | 65 | 60 | 70 | 0 | 0 | 20 | 0 | 40 | 40 | 60 | 60 | 90 | 90 | 90 | 30 | 70 | Plant response rating, Ragweed [4, 17]: 50; Plant response rating, Foxtail, Giant ([7]; preemergence, 500 g ai/ha): 90; Plant response rating, Ryegrass, Italian [9, 15]: 0; Plant response rating, Ryegrass, Italian [9, 16]: 20; Ryegrass, Italian plant response rating (0 to 100 scale, 0 is no effect, 100 is complete control) ([9]; Postemergence, 500 g ai/ha): 50; Plant response rating, Ryegrass, Italian [9, 17]: 40; Plant response rating, Barnyardgrass [10, 18]: 90; Plant response rating, Barnyardgrass [10, 19]: 90; Barnyardgrass plant response rating (0 to 100 scale, 0 is no effect, 100 is complete control) ([10]; Postemergence, 500 g ai/ha): 90; Plant response rating, Barnyardgrass ([10]; preemergence, 500 g ai/ha, 0 to 100 scale (0 no effect, 100 complete control)): 90; Plant response rating, Wheat [11]: 0; Wheat plant response rating (0 to 100 scale, 0 is no effect, 100 is complete control) [11]: 40; Plant response rating, Ducksalad [12]: 100; Plant response rating, Sedge, Umbrella [13]: 0; Plant response rating, Blackgrass [14]: 40; Blackgrass plant response rating (0 to 100 scale, 0 is no effect, 100 is complete control) [14]: 60

Reference: US10294202B2, “Pyrrolidinones as herbicides” (FMC Corporation, priority 2013, dated 2019)
